Laboratory results published in patent US9957252B2, “Metalloenzyme inhibitor compounds as fungicides” (Dow AgroSciences LLC, priority 2014, dated 2018).
Read-outs that look alike come from different tables or passages of the source.

Assays:
Format in all cases: in vivo, Mycosphaerella graminicola on wheat plants (variety Yuma)
[1] = test system: standard laboratory SEPTTR isolate (SI SEPTTR); Mycosphaerella graminicola; Anamorph: Septoria tritici; assay: Leaf blotch of wheat fungicidal activity, Type A assay (technical grade in acetone/water with Triton X-100, booth sprayer), standard laboratory isolate; details: Zymoseptoria tritici, 24 h, 1 Day Protectant, wheat seedlings (Yuma), read-out: Disease control, SI SEPTTR Type A Assay (50 ppm) 1DP
Protocol: (§1) Evaluation of Fungicidal Activity: Leaf Blotch of Wheat (Mycosphaerella graminicola; Anamorph: Septoria tritici; Bayer code SEPTTR):
(§2) For Type A assays, technical grades of the experimental fungicides in Table 4 below were dissolved in acetone, and then mixed with nine volumes of water containing 110 ppm Triton X-100. The fungicide solutions were applied onto wheat seedlings using an automated booth sprayer. For Type B assays, emulsifiable concentrate (EC) formulations of technical grades of experimental fungicides in Table 4 below were prepared at 10% (w/v), and then mixed with 150 volumes of 0.1% Trycol 5941. The fungicide solutions were applied onto wheat seedlings using an automated track sprayer at 200 L/ha. All sprayed plants were allowed to air dry prior to further handling.
(§3) Wheat plants (variety Yuma) were grown from seed in a greenhouse in 50% mineral soil/50% soil-less Metro mix until the first leaf was fully emerged, with 7-10 seedlings per pot. Prior to or after application of experimental fungicides, plants were inoculated either with spores of a standard laboratory SEPTTR isolate (SI SEPTTR) or with spores from a SEPTTR field isolate collected from Wellsbourne, England in 2012 (FI SEPTTR). After inoculation, the plants were kept for 3 days at 20° C. in 100% relative humidity (one day in a dark dew chamber followed by two days in a lighted dew chamber). Plants were then transferred to a 20° C. greenhouse for disease development. When disease symptoms were fully expressed on untreated plants, infection levels on treated plants were assessed on a scale of 0 to 100 percent disease severity. Percent disease control was calculated using the ratio of disease severity on treated plants relative to untreated plants.

[2] = Leaf blotch of wheat fungicidal activity, Type B assay (10% EC formulation in 0.1% Trycol 5941, track sprayer 200 L/ha), field isolate; details: Zymoseptoria tritici, 72 h, field isolate (Wellsbourne, England 2012), wheat seedlings (Yuma)
Protocol: as §1, §2, §3

[3] = test system: standard laboratory SEPTTR isolate (SI SEPTTR); Mycosphaerella graminicola; Anamorph: Septoria tritici; assay: Leaf blotch of wheat fungicidal activity, Type B assay (10% EC formulation in 0.1% Trycol 5941, track sprayer 200 L/ha), standard laboratory isolate; details: Zymoseptoria tritici, 72 h, wheat seedlings (Yuma)
Protocol: as §1, §2, §3

[4] = 3 Day Curative, read-out: Disease control, FI SEPTTR Type B Assay (100 g/ha) 3DC
[5] = 3 Day Protectant, read-out: Disease control, FI SEPTTR Type B Assay (100 g/ha) 3DP
[6] = 3 Day Curative, read-out: Disease control, SI SEPTTR Type B Assay (100 g/ha) 3DC
[7] = 3 Day Protectant, read-out: Disease control, SI SEPTTR Type B Assay (100 g/ha) 3DP

Structure (SMILES)	pest or weed control at 50 ppm [1] [%]	further results
Cc1cc(-c2ccc(C#N)cc2)ccc1C(O)(c1cncnc1)C(C)(C)C (stereo not shown) [Compound 37]	80 to 100	
Cc1cc(-c2ccc(C(C)(C)C)cc2)ccc1C(O)(c1cncnc1)C(C)(C)C (stereo not shown) [Compound 39]	80 to 100	
Cc1cc(-c2ccc(CC#N)cc2)ccc1C(O)(c1cncnc1)C(C)(C)C (stereo not shown) [Compound 43]	40 to 59	
Cc1cc(-c2ccc(C(C)(C)C#N)cc2)ccc1C(O)(c1cncnc1)C(C)(C)C (stereo not shown) [Compound 42]	80 to 100	
Cc1cc(-c2ccc(OC(F)(F)F)cc2F)ccc1C(O)(c1cncnc1)C(C)(C)C (stereo not shown) [Compound 41]	80 to 100	
Cc1cc(-c2ccc(C3(C#N)CC3)cc2)ccc1C(O)(c1cncnc1)C(C)(C)C (stereo not shown) [Compound 38]	80 to 100	
Cc1cc(OC(F)(F)F)ccc1-c1ccc(C(O)(c2cncnc2)C(C)(C)C)c(C)c1 (stereo not shown) [Compound 40]	80 to 100	
CC(C)(C)C(O)(c1ccc(-c2ccccc2OC(F)(F)F)cc1)c1cncnc1 (stereo not shown) [Compound 12]	60 to 79	
CC(C)(C)C(O)(c1ccc(-c2ccccc2)cc1)c1cncnc1 (stereo not shown) [Compound 5]	80 to 100	
COc1cc(-c2ccc(C#N)cc2)ccc1C(O)(c1cncnc1)C(C)(C)C (stereo not shown) [Compound 47]	80 to 100	
CC(C)(C)C(O)(c1ccc(-c2ccc(C(F)(F)F)cc2F)cc1)c1cncnc1 (stereo not shown) [Compound 29]	80 to 100	
Cc1cc(-c2ccc(OC(F)(F)F)cc2)ccc1C(O)(c1cncnc1)C(C)(C)C (stereo not shown) [Compound 34]	80 to 100	
COc1cc(-c2ccc(C3(C#N)CC3)cc2)ccc1C(O)(c1cncnc1)C(C)(C)C (stereo not shown) [Compound 49]	80 to 100	
COc1cc(-c2ccc(CC#N)cc2)ccc1C(O)(c1cncnc1)C(C)(C)C (stereo not shown) [Compound 48]	80 to 100	
CC(C)(C)C(O)(c1ccc(-c2ccc(C#N)cc2)cc1)c1cccnc1 (stereo not shown) [Compound 58]	80 to 100	
CC(C)(C)C(O)(c1ccc(-c2ccc(C(F)(F)F)nc2)cc1)c1cncnc1 (stereo not shown) [Compound 7]	80 to 100	
CC(C)(C)C(O)(c1cncnc1)c1ccc(-c2ccccc2)cc1Cl (stereo not shown) [Compound 27]	80 to 100	
Cc1cc(-c2ccc(OC(F)F)cc2)ccc1C(O)(c1cncnc1)C(C)(C)C (stereo not shown) [Compound 36]	80 to 100	
COc1cc(-c2ccc(OC(F)(F)F)cc2)ccc1C(O)(c1cncnc1)C(C)(C)C (stereo not shown) [Compound 44]	80 to 100	
CC(C)(C)C(O)(c1cncnc1)c1ccc(-c2ccc(C#N)cc2)cc1F (stereo not shown) [Compound 17]		pest or weed control at 100 g/ha [2, 4]: 80 to 100%; pest or weed control at 100 g/ha [2, 5]: 80 to 100%; pest or weed control at 100 g/ha [3, 6]: 80 to 100%; pest or weed control at 100 g/ha [3, 7]: 80 to 100%
CC(C)(C)C(O)(c1ccc(-c2ccc(C3(C#N)CC3)cc2)cc1)c1cccnc1 (stereo not shown) [Compound 60]	80 to 100	
COc1cc(-c2ccc(OC(F)F)cc2)ccc1C(O)(c1cncnc1)C(C)(C)C (stereo not shown) [Compound 45]	80 to 100	
COc1cc(-c2ccc(C(C)(C)C)cc2)ccc1C(O)(c1cncnc1)C(C)(C)C (stereo not shown) [Compound 51]	80 to 100	
CC(C)(C)c1ccc(-c2ccc(C(O)(c3cncnc3)C(C)(C)C)cc2)cc1 (stereo not shown) [Compound 33]	80 to 100	
CC(C)(C)C(O)(c1cncnc1)c1ccc(-c2ccc(Cl)cc2)cc1Cl (stereo not shown) [Compound 22]		pest or weed control at 100 g/ha [2, 4]: 80 to 100%; pest or weed control at 100 g/ha [2, 5]: 80 to 100%; pest or weed control at 100 g/ha [3, 6]: 80 to 100%; pest or weed control at 100 g/ha [3, 7]: 80 to 100%
